US10703735B2, “4-phenyl-coumarin derivatives, processes for their preparation and uses thereof for the treatment of cancer” (Lead Discovery Center GmbH, priority 2018, dated 2020)

Target: mitochondrial RNA-polymerase (POLRMT) (Mus musculus, UniProt Q8BKF1)
Assay: Homogeneous TR-FRET assay for mitochondrial transcription activity
Assay type: biochemical
Conditions: homogeneous TR-FRET assay according to Example 4; read-out: mitochondrial transcription activity (IC-50)
Excerpt: The TR-FRET assay was basically conducted as described in WO 2016/193231A1, especially as described in example 1 (hereby incorporated by reference). With respect to the background of the mitochondrial transcription it is referred to Falkenberg et al. (2002) and Posse et al. (Posse et al. 2015). The method monitors the activity of mitochondrial RNA-polymerase via detection of the formation of its product, a 407 bp long RNA sequence. Detection of the product is facilitated by hybridization of two DNA-oligonucleotide probes to specific and adjacent sequences within the RNA product sequence. Upon annealing of the probes, two fluorophores that are coupled directly to an acceptor nucleotide probe (ATT0647, 5′) or introduced via a coupled streptavidin interacting with a biotinylated donor nucleotide probe on the other side (Europium cryptate, 3) are brought into sufficient proximity to serve as a fluorescence-donor-acceptor pair as generally described in Walters and Namchuk (2003). Thus, a FRET signal at 665 nm is generated upon excitation at 340 nm.
Briefly, the protocol described here was applied for screening and activity determination in a low-volume 384-well microtiter plate with non-binding surface. For high-throughput application in the 1536-well microtiter plate format, volumes of the reagent mixes were adjusted, maintaining the volumetric ratio. Proteins POLRMT (NM_172551.3), TFAM (NM_009360.4) and TFB2M (NM_008249.4) were diluted from their stocks to working concentrations of 150 nM, 1.8 μM and 330 nM respectively, in a dilution buffer containing 100 mM Tris-HCl pH 8.0, 200 mM NaCl, 10% (v/v) glycerole, 2 mM glutathione (GSH), 0.5 mM EDTA and 0.1 mg/mL BSA. Protein dilutions and template DNA, comprising a pUC18 plasmid encoding the mitochondrial light strand promoter, restriction linearized proximal to the promoter 3′-end (pUC-LSP), were mixed at the twofold final assay-concentration in a reaction buffer, containing 10 mM Tris-HCl pH 7.5, 10 mM MgCl2, 40 mM NaCl, 2 mM GSH, 0.01% (w/v) Tween-20 and 0.1 mg/mL BSA.
5 μL of this mix were dispensed, depending on the chosen microtiter plate format, using multi-channel pipettes or a Multidrop® dispenser (Thermo Fisher Scientific, Waltham Mass.) into the wells of a microtiter plate and incubated at room temperature (RT) for 10 min. Chemical compounds under scrutiny in the assay were applied using contact-free acoustic droplet-dispensing (Echo520® Labcyte Inc., Sunnyvale Calif.) from 10 mM compound stocks in 100% DMSO, to a final concentration of 10 μM or in serial dilution series of the required concentration range. Equal amounts of DMSO without any compound were added to positive control samples, followed by an incubation step at RT for 10 min.
The enzymatic reaction was started by the addition of 5 μL of a mix of dNTPs in reaction buffer to a final concentration of 500 μM each. No nucleotide mix was added to negative control samples. The content of the wells was mixed using a VarioTeleshaker™ (Thermo Fisher Scientific, Waltham Mass.) at 1500 rpm for 45 sec after which the microtiter plate was centrifuged at 500×g for 1 min. The samples were incubated for 2 h at RT with humidity control to avoid evaporation. The detection reagents were prepared in a buffer that was composed, such that the enzymatic reaction was terminated due to chelating of Mg-ions and increased ionic strength, containing 50 mM Tris-HCl pH 7.5, 700 mM NaCl, 20 mM EDTA, and 0.01% (w/v) Tween-20. Importantly Eu-cryptate-coupled streptavidin had to be preincubated with a 100-fold molar excess of a random sequence oligonucleotide for 10 min at RT in the dark to block unspecific binding of single stranded RNA to the protein. Subsequently, the blocked streptavidin(-Eu) was mixed with the DNA-probes on ice and kept away from light until use. […]

Sequence of mitochondrial RNA-polymerase (POLRMT) (Q8BKF1 42-1207): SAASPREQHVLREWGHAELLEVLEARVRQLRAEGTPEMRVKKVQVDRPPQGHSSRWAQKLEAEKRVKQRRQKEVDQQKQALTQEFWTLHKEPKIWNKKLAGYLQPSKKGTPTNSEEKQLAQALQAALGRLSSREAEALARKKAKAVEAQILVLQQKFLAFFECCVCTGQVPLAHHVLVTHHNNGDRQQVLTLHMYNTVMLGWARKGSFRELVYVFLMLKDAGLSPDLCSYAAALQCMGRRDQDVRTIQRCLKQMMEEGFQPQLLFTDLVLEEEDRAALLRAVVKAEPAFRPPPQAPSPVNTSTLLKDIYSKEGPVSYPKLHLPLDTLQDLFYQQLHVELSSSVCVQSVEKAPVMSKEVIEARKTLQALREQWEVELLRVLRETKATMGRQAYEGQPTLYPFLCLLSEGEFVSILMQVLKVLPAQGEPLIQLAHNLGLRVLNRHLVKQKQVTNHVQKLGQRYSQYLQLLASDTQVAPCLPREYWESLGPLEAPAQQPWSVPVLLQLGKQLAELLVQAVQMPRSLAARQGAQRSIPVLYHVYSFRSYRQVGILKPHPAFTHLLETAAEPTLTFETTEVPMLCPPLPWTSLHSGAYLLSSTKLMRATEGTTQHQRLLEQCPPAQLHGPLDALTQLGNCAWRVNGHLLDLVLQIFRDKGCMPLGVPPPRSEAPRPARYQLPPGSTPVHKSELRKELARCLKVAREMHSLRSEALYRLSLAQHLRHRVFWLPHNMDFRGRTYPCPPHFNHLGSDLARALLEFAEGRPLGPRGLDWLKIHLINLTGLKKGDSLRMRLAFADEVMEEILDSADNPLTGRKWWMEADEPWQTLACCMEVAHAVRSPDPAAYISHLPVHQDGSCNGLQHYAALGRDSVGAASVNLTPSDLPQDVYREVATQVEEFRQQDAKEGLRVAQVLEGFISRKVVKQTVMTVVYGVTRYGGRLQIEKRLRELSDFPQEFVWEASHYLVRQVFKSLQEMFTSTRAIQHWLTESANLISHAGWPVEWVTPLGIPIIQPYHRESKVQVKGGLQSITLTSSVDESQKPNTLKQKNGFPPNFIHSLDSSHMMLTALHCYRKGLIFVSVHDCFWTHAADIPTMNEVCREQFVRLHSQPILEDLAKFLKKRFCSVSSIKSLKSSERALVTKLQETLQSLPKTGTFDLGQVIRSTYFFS

| SMILES | IC50 [µM] |
| --- | --- |
| CC(Oc1cc2oc(=O)cc(-c3ccccc3)c2cc1Cl)C(=O)NCc1ccco1 (centres unmarked) [Compound 42, 2-(6-chloro-2-oxo-4-phenyl-chromen-7-yl)oxy-N-(2-furylmethyl)propanamide] | 0.1 to 1 |
| CCOC(=O)C1CCCN(C(=O)COc2ccc3c(-c4ccccc4)cc(=O)oc3c2)C1 (centres unmarked) [Compound 43, ethyl 1-[2-(2-oxo-4-phenyl-chromen-7-yl)oxyacetyl]piperidine-3-carboxylate] | 1 to 10 |
| O=C(COc1cc2oc(=O)cc(-c3ccccc3)c2cc1Cl)N1CCOCC1 [Compound 45, 6-chloro-7-(2-morpholino-2-oxo-ethoxy)-4-phenyl-chromen-2-one] | 1 to 10 |
| O=C(COc1cc2oc(=O)cc(-c3ccccc3)c2cc1Cl)NC1CC1 [Compound 46, 2-(6-chloro-2-oxo-4-phenyl-chromen-7-yl)oxy-N-cyclopropyl-acetamide] | 0.1 to 1 |
| CCN(CC)C(=O)COc1cc2oc(=O)cc(-c3ccccc3)c2cc1Cl [Compound 47, 2-(6-chloro-2-oxo-4-phenyl-chromen-7-yl)oxy-N,N-diethyl-acetamide] | 0.1 to 1 |
| CCN(CC)C(=O)COc1ccc2c(-c3ccccc3)cc(=O)oc2c1 [Compound 48, N,N-diethyl-2-(2-oxo-4-phenyl-chromen-7-yl)oxy-acetamide] | 1 to 10 |
| CCOC(=O)COc1cc2oc(=O)cc(-c3ccccc3)c2cc1Cl [Compound 49, ethyl 2-(6-chloro-2-oxo-4-phenyl-chromen-7-yl)oxyacetate] | 0.1 to 1 |
| CCOC(=O)C(C)Oc1cc2oc(=O)cc(-c3ccccc3)c2cc1Cl (centres unmarked) [Compound 50, ethyl 2-(6-chloro-2-oxo-4-phenyl-chromen-7-yl)oxypropanoate] | 0.1 to 1 |
| O=C(O)C1CCCN(C(=O)COc2ccc3c(-c4ccccc4)cc(=O)oc3c2)C1 (centres unmarked) [Compound 54, 1-[2-(2-oxo-4-phenyl-chromen-7-yl)oxyacetyl]piperidine-3-carboxylic acid] | 0.1 to 1 |
| O=C(COc1cc2oc(=O)cc(-c3ccccc3)c2cc1Cl)Nc1ccc(CCO)cc1 [Compound 57, 2-(6-chloro-2-oxo-4-phenyl-chromen-7-yl)oxy-N-[4-(2-hydroxyethyl)phenyl]acetamide] | 0.1 to 1 |
| O=C(COc1cc2oc(=O)cc(-c3ccccc3)c2cc1Cl)NCc1cccnc1 [Compound 59, 2-(6-chloro-2-oxo-4-phenyl-chromen-7-yl)oxy-N-(3-pyridylmethyl)acetamide] | 1 to 10 |
| CC(Oc1ccc2c(-c3ccccc3)cc(=O)oc2c1)C(=O)N1CCCC(C(N)=O)C1 (centres unmarked) [Compound 60, 1-[2-(2-oxo-4-phenyl-chromen-7-yl)oxypropanoyl]piperidine-3-carboxamide] | 1 to 10 |
| CC(Oc1ccc2c(-c3ccccc3)cc(=O)oc2c1)C(=O)N1CCC(C(=O)O)CC1 (centres unmarked) [Compound 69, 1-[2-(2-oxo-4-phenyl-chromen-7-yl)oxypropanoyl]piperidine-4-carboxylic acid] | 1 to 10 |
| CCOCCOC(=O)COc1ccc2c(-c3ccccc3)cc(=O)oc2c1 [Compound 73, 2-ethoxyethyl 2-(2-oxo-4-phenyl-chromen-7-yl)oxyacetate] | 1 to 10 |
| O=C(COc1cc2oc(=O)cc(-c3ccccc3)c2cc1Cl)N1CCCc2ccccc21 [Compound 78, 6-chloro-7-[2-(3,4-dihydro-2H-quinolin-1-yl)-2-oxo-ethoxy]-4-phenyl-chromen-2-one] | 1 to 10 |
| CC(Oc1cc2oc(=O)cc(-c3ccccc3)c2cc1Cl)C(=O)NCCN1CCOCC1 (centres unmarked) [Compound 79, 2-(6-chloro-2-oxo-4-phenyl-chromen-7-yl)oxy-N-(2-morpholinoethyl)propanamide] | 1 to 10 |

Results, then the compound that gave them:

| IC50 [µM] | SMILES |
| --- | --- |
| 0.1 to 1 | CN(C(=O)COc1ccc2c(-c3ccccc3)cc(=O)oc2c1)c1ccc(CCO)cc1 [Compound 40, N-[4-(2-hydroxyethyl)phenyl]-N-methyl-2-(2-oxo-4-phenyl-chromen-7-yl)oxy-acetamide] |
| 0.1 to 1 | CCOC(=O)C(C)Oc1ccc2c(-c3ccc(Br)cc3)cc(=O)oc2c1 (centres unmarked) [Compound 41, ethyl 2-[4-(4-bromophenyl)-2-oxo-chromen-7-yl]oxypropanoate] |
| 0.1 to 1 | CC(C)(C)OC(=O)COc1ccc2c(-c3ccccc3)cc(=O)oc2c1 [Compound 44, tert-butyl 2-(2-oxo-4-phenyl-chromen-7-yl)oxyacetate] |
| 0.1 to 1 | CC(Oc1ccc2c(-c3ccccc3)cc(=O)oc2c1)C(=O)O (centres unmarked) [Compound 51, 2-(2-oxo-4-phenyl-chromen-7-yl)oxypropanoic acid] |
| 1 to 10 | CC(Oc1ccc2c(-c3ccccc3)cc(=O)oc2c1)C(=O)Nc1cccnc1 (centres unmarked) [Compound 55, 2-(2-oxo-4-phenyl-chromen-7-yl)oxy-N-(3-pyridyl)propanamide] |
| 0.1 to 1 | COC(=O)C(C)Oc1ccc2c(-c3ccccc3)cc(=O)oc2c1 (centres unmarked) [Compound 56, methyl 2-(2-oxo-4-phenyl-chromen-7-yl)oxypropanoate] |
| 0.1 to 1 | COC(=O)C(C)Oc1cc2oc(=O)cc(-c3ccccc3)c2cc1Cl (centres unmarked) [Compound 58, methyl 2-(6-chloro-2-oxo-4-phenyl-chromen-7-yl)oxypropanoate] |
| 1 to 10 | CC(Oc1ccc2c(-c3ccccc3)cc(=O)oc2c1)C(=O)Nc1ccncc1 (centres unmarked) [Compound 61, 2-(2-oxo-4-phenyl-chromen-7-yl)oxy-N-(4-pyridyl)propanamide] |
| 1 to 10 | CNC(=O)C1CCCN(C(=O)C(C)Oc2ccc3c(-c4ccccc4)cc(=O)oc3c2)C1 (centres unmarked) [Compound 62, N-methyl-1-[2-(2-oxo-4-phenyl-chromen-7-yl)oxypropanoyl]piperidine-3-carboxamide] |
| 1 to 10 | COC(=O)C1CCN(C(=O)C(C)Oc2ccc3c(-c4ccccc4)cc(=O)oc3c2)CC1 (centres unmarked) [Compound 63, methyl 1-[2-(2-oxo-4-phenyl-chromen-7-yl)oxypropanoyl]piperidine-4-carboxylate] |
| 1 to 10 | C[C@@H](Oc1ccc2c(-c3ccccc3)cc(=O)oc2c1)C(=O)O [Compound 66, (2R)-2-(2-oxo-4-phenyl-chromen-7-yl)oxypropanoic acid] |
| 1 to 10 | CC(Oc1ccc2c(-c3ccccc3)cc(=O)oc2c1)C(N)=O (centres unmarked) [Compound 67, 2-(2-oxo-4-phenyl-chromen-7-yl)oxypropanamide] |
| 1 to 10 | CC(Oc1ccc2c(-c3ccccc3)cc(=O)oc2c1)C(=O)NCCN1CCOCC1 (centres unmarked) [Compound 70, N-(2-morpholinoethyl)-2-(2-oxo-4-phenyl-chromen-7-yl)oxy-propanamide] |
| 1 to 10 | CCOC(=O)C(CC)Oc1ccc2c(-c3ccccc3)cc(=O)oc2c1 (centres unmarked) [Compound 71, ethyl 2-(2-oxo-4-phenyl-chromen-7-yl)oxybutanoate] |
| 1 to 10 | COc1ccc(NC(=O)C(C)Oc2ccc3c(-c4ccccc4)cc(=O)oc3c2)cc1 (centres unmarked) [Compound 72, N-(4-methoxyphenyl)-2-(2-oxo-4-phenyl-chromen-7-yl)oxy-propanamide] |
| 1 to 10 | CCCOC(=O)COc1ccc2c(-c3ccccc3)cc(=O)oc2c1 [Compound 74, propyl 2-(2-oxo-4-phenyl-chromen-7-yl)oxyacetate] |
| 1 to 10 | NC(=O)COc1ccc2c(-c3ccccc3)cc(=O)oc2c1 [Compound 75, 2-(2-oxo-4-phenyl-chromen-7-yl)oxyacetamide] |
| 1 to 10 | CCCCOC(=O)COc1ccc2c(-c3ccccc3)cc(=O)oc2c1 [Compound 76, butyl 2-(2-oxo-4-phenyl-chromen-7-yl)oxyacetate] |
| 1 to 10 | CC(C)COC(=O)COc1ccc2c(-c3ccccc3)cc(=O)oc2c1 [Compound 77, isobutyl 2-(2-oxo-4-phenyl-chromen-7-yl)oxyacetate] |
